Experimental findings from patent US9586951B2 (FUJIFILM Corporation, priority 2013, dated 2017) are described below.

T1 sequence (Q13315 whole entry): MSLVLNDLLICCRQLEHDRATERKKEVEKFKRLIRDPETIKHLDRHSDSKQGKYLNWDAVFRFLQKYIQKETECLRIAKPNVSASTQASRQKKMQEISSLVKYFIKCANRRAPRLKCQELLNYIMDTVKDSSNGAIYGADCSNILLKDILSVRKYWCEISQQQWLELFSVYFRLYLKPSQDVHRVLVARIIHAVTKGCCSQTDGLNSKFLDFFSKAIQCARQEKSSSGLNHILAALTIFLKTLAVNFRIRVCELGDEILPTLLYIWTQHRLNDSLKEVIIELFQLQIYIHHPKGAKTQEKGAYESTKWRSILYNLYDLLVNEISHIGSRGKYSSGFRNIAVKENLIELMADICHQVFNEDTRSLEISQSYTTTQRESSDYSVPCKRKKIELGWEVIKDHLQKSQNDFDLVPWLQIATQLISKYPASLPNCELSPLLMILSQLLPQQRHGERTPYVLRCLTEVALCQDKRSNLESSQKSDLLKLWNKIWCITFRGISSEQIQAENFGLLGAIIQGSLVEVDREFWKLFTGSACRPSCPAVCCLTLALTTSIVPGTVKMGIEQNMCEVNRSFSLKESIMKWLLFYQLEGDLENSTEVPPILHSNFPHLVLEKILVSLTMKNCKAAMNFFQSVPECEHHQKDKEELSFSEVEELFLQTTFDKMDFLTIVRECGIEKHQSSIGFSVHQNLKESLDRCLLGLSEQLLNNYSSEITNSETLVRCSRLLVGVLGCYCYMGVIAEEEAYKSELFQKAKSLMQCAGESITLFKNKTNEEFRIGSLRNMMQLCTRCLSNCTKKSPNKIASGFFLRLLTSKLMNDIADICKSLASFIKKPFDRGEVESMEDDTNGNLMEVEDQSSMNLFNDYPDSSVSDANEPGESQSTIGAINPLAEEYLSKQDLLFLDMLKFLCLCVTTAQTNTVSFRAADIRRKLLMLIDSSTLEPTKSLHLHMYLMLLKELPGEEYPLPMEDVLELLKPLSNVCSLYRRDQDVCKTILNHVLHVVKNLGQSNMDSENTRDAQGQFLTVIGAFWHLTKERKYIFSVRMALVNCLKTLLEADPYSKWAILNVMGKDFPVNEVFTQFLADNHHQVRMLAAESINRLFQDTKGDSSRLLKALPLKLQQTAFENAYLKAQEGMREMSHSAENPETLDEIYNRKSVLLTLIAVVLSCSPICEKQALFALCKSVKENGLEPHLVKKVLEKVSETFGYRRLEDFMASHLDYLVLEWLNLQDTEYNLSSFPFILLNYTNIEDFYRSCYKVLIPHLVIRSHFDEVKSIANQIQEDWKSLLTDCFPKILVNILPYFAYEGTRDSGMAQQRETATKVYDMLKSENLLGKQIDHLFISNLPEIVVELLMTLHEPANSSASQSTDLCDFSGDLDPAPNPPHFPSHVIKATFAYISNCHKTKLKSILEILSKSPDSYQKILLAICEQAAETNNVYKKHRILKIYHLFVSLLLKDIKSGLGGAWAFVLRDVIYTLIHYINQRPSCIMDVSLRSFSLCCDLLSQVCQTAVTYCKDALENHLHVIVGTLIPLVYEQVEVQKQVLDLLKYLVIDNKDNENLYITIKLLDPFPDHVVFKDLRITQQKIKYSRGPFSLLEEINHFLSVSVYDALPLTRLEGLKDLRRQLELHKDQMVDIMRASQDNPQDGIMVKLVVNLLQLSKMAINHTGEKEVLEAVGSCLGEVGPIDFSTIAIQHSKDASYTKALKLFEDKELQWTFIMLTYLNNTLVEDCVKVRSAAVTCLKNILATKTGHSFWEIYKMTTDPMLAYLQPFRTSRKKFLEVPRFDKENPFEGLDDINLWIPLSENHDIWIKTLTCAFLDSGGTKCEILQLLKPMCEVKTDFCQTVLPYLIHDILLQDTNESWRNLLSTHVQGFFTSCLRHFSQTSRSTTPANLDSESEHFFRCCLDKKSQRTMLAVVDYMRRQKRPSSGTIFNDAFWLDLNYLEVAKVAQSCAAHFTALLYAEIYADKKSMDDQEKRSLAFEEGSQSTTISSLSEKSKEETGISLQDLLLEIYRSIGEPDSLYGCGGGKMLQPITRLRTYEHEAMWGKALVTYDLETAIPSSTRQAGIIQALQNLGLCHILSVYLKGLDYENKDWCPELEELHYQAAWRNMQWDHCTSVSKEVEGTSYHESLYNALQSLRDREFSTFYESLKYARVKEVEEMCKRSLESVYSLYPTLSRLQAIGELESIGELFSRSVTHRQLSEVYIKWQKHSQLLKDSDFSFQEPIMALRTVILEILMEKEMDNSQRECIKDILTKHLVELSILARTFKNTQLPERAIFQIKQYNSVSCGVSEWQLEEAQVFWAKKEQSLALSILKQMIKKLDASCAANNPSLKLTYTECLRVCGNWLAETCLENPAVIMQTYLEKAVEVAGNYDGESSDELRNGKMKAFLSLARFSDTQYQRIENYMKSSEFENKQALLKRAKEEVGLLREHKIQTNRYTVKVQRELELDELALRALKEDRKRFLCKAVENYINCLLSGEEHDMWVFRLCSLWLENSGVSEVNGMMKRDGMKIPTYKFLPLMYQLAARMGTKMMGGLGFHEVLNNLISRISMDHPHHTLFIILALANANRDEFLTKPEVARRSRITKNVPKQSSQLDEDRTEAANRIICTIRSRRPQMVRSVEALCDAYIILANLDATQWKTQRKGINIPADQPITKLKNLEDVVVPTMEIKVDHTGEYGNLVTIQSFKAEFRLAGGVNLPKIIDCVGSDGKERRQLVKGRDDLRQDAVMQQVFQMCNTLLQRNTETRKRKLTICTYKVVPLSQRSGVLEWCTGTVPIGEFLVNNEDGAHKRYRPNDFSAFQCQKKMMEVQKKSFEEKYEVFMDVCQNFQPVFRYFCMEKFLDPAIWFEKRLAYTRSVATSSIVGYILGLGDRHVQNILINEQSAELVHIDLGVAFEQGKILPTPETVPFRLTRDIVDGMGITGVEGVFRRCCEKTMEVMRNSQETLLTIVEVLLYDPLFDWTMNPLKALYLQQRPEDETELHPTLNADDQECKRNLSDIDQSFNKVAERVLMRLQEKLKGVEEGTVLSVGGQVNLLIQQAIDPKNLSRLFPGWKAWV

The assay concerns the target T1, ATM (Homo sapiens, UniProt Q13315).
T1 construct: detecting phosphorylation of Chk2 in a human non-small cell lung cancer cell line NCI-H460 (ATCC company); host or cells: NCI-H460 human non-small cell lung cancer cells
The assay is described as follows: ATM inhibition test (phosphorylation of Chk2 generated by ionizing radiation, AlphaScreen SureFire). It counts as cell-based. The following applies: phosphorylated Chk2 in NCI-H460 cells, ionizing radiation 8Gy, 1 hour after test compound treatment; read-out: ATM inhibitory activity. The essentials: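 NCI-H460 cells, compound 1 h pre-treatment, 8Gy IR, further 1 h at 37° C in 5% CO2. Read-out: phospho-Chk2 via AlphaScreen SureFire. % inhibition relative to IR-induced signal window (irradiated vs non-irradiated drug-free wells).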
In general terms: In Alpha technology, singlet oxygen from a donor bead excites a nearby acceptor bead.
On to `CCC(Nc1ccc2c(c1)Sc1cccc(-c3cc(N4CCOCC4)cc(=O)[nH]3)c1S2)c1cncc(OC)c1` (stereo not drawn) [Example 1-12-17, 6-(7-((1-(5-Methoxypyridin-3-yl)propyl)amino)thianthren-1-yl)-4-morpholino pyridin-2(1H)-one], for which the IC50 was in the range of 100 to 500 nM.

Consider `CCCC(Nc1ccc2c(c1)Sc1cccc(-c3cc(N4CCOCC4)cc(=O)[nH]3)c1S2)c1ccc(C)cn1` (stereo not drawn) [Example 1-12-119, 6-(7-((1-(5-Methylpyridin-2-yl)butyl)amino)thianthren-1-yl)-4-morpholino pyridin-2 (1H)-one], for which the IC50 lay in the range of 100 to 500 nM.

Turning to `Cc1ccc(CN2CCC(Nc3ccc4c(c3)Cc3cccc(-c5cc(N6CCOCC6)cc(=O)[nH]5)c3O4)CC2)nc1` [Example 2-28-22, 6-(7-((1-((5-Methylpyridin-2-yl)methyl)piperidin-4-yl)amino)-9H-xanthen-4-yl)-4-morpholino pyridin-2(1H)-one], the IC50 lay in the range of 100 to 500 nM.

Consider `Cc1ccc(C(CCN(C)C)Nc2ccc3c(c2)Sc2cccc(-c4cc(N5CCOCC5)cc(=O)[nH]4)c2S3)nc1` (single isomer, unassigned) [Example 1-51-5, 6-(7-((3-(Dimethylamino)-1-(5-methylpyridin-2-yl)propyl)amino)thianthren-1-yl)-4-morpholino pyridin-2 (1H)-one], for which the IC50 was under 100 nM.

Consider `Cc1ccc(C(Nc2ccc3c(c2)Sc2cccc(-c4cc(N5CCOCC5)cc(=O)[nH]4)c2S3)C2CCN(CCF)CC2)nc1` (stereo not drawn) [Example 1-56-6, 6-(7-(((1-(2-Fluoroethyl)piperidin-4-yl)(5-methylpyridin-2-yl)methyl)amino)thianthren-1-yl)-4-morpholino pyridin-2(1H)-one], for which the IC50 was under 100 nM.

Consider `Cc1ccncc1CNc1ccc2c(c1)Cc1cccc(-c3cc(N4CCOCC4)cc(=O)[nH]3)c1O2` [Example 2-14-5, 6-(7-(((4-Methylpyridin-3-yl)methyl)amino)-9H-xanthen-4-yl)-4-morpholino pyridin-2(1H)-one], for which the IC50 was in the range of 100 to 500 nM.

`O=c1cc(N2CCOCC2)cc(-c2cccc3c2Oc2ccc(NCc4ccncc4)cc2CC3)[nH]1` [Example 2-51-3, 4-Morpholino-6-(8-((pyridin-4-ylmethyl)amino)-10,11-dihydrodibenz[b,f]oxepin-4-yl)pyridin-2(1H)-one]: the IC50 fell in the range of 500 to 2000 nM.

In the case of `CCN(CC)CC(Nc1ccc2c(c1)Sc1cccc(-c3cc(N4CCOCC4)cc(=O)[nH]3)c1S2)c1cnc(C)cn1` (stereo not drawn) [Example 1-33, 6-(7-((2-(diethylamino)-1-(5-methylpyrazin-2-yl)ethyl)amino)thianthren-1-yl)-4-morpholinopyridin-2(1H)-one], the IC50 lay within 100 to 500 nM.

For the molecule `CC(CN1CCOCC1)Nc1ccc2c(c1)Sc1cccc(-c3cc(N4CCOCC4)cc(=O)[nH]3)c1S2` (single isomer, unassigned) [Example 1-13-2-3, 4-morpholino-6-(7-((1-morpholinopropan-2-yl)amino)thianthren-1-yl)pyridin-2(1H)-one], the IC50 lay in the range of 100 to 500 nM.

Consider `O=c1cc(N2CCOCC2)cc(-c2cccc3c2Sc2ccc(NCc4ccsc4)cc2S3)[nH]1` [Example 1-12-1, 4-morpholino-6-(7-((thiophen-3-ylmethyl)amino)thianthren-1-yl)pyridin-2(1H)-one], for which the IC50 fell in the range of 100 to 500 nM.

Regarding `CC(Nc1ccc2c(c1)Sc1cccc(-c3cc(N4CCOCC4)cc(=O)[nH]3)c1S2)c1cc(Cl)ncn1` (stereo not drawn) [Example 1-12-83, 6-(7-((1-(6-Chloropyrimidin-4-yl)ethyl)amino)thianthren-1-yl)-4-morpholino pyridin-2 (1H)-one], the IC50 was 100 to 500 nM.

As for `Cc1cc(C(C)Nc2ccc3c(c2)Cc2cccc(-c4cc(N5CCOCC5)cc(=O)[nH]4)c2O3)ncn1` (stereo not drawn) [Example 2-14-52, 6-(7-((1-(6-Methylpyrimidin-4-yl)ethyl)amino)-9H-xanthen-4-yl)-4-morpholino pyridin-2 (1H)-one], the IC50 is 100 to 500 nM.

Turning to `COc1ccc(CNc2ccc3c(c2)Cc2cc(C)cc(-c4cc(N5CCOCC5)cc(=O)[nH]4)c2O3)cn1` [Example 2-49-1, 6-(7-(((6-Methoxypyridin-3-yl)methyl)amino)-2-methyl-9H-xanthen-4-yl)-4-morpholinopyridin-2(1H)-one], the IC50 lay in the range of 500 to 2000 nM.

Turning to `CN(C)C(=O)Nc1ncc(CNc2ccc3c(c2)Sc2cccc(-c4cc(N5CCOCC5)cc(=O)[nH]4)c2S3)cn1` [Example 1-12-47], the IC50 was in the range of 100 to 500 nM.

Turning to `Cc1cccc(C(CNC(=O)OC(C)(C)C)Nc2ccc3c(c2)Cc2cccc(-c4cc(N5CCOCC5)cc(=O)[nH]4)c2O3)n1` (stereo not drawn) [Example 2-14-46], the IC50 was in the range of 100 to 500 nM.

As to `Cc1ccnc(C(CN2CCOCC2)Nc2ccc3c(c2)Sc2cccc(-c4cc(N5CCOCC5)cc(=O)[nH]4)c2S3)n1` (stereo not drawn) [Example 1-13-18, 6-(7-((1-(4-Methylpyrimidin-2-yl)-2-morpholinoethyl)amino)thianthren-1-yl)-4-morpholinopyridin-2(1H)-one], the IC50 lay within 500 to 2000 nM.

On to `Cc1cnc(C(CCN2CCC2)Nc2ccc3c(c2)Sc2cccc(-c4cc(N5CCOCC5)cc(=O)[nH]4)c2S3)cn1` (single isomer, unassigned) [Example 1-51-11, 6-(7-((3-(Azetidin-1-yl)-1-(5-methylpyrazin-2-yl)propyl)amino)thianthren-1-yl)-4-morpholino pyridin-2(1H)-one], for which the IC50 was under 100 nM.

Take `Cc1ccc(C(Nc2ccc3c(c2)Sc2cccc(-c4cc(N5CCOCC5)cc(=O)[nH]4)c2S3)C2CCC2)nc1` (stereo not drawn) [Example 1-12-124, 6-(7-((Cyclobutyl(5-methylpyridin-2-yl)methyl)amino)thianthren-1-yl)-4-morpholino pyridin-2(1H)-one]: the IC50 is 100 to 500 nM.

On to `O=c1cc(N2CCOCC2)cc(-c2ccc(F)c3c2Oc2ccc(NCc4cc(C5CC5)ccn4)cc2C3)[nH]1` [Example 2-44-2, 6-(7-(((4-Cyclopropylpyridin-2-yl)methyl)amino)-1-fluoro-9H-xanthen-4-yl)-4-morpholinopyridin-2(1H)-one], for which the IC50 lay in the range of 100 to 500 nM.

Take `Cc1cnc(CNc2ccc3c(c2)Cc2cccc(-c4cc(N5CCOCC5)cc(=O)[nH]4)c2O3)s1` [Example 2-14-47, 6-(7-(((5-Methylthiazol-2-yl)methyl)amino)-9H-xanthen-4-yl)-4-morpholino pyridin-2(1H)-one]: the IC50 was in the range of 100 to 500 nM.

In the case of `CC(Nc1ccc2c(c1)Sc1cccc(-c3cc(N4CCOCC4)cc(=O)[nH]3)c1S2)c1nccs1` (stereo not drawn) [Example 1-12-67, 4-Morpholino-6-(7-((1-(thiazol-2-yl)ethyl)amino)thianthren-1-yl)pyridin-2 (1H)-one], the IC50 was 100 to 500 nM.

As for `CC(CN1CCN(Cc2ccccc2)CC1)Nc1ccc2c(c1)Sc1cccc(-c3cc(N4CCOCC4)cc(=O)[nH]3)c1S2` (stereo not drawn) [Example 1-15-1, 6-(7-((1-(4-Benzylpiperazin-1-yl)propan-2-yl)amino)thianthren-1-yl)-4-morpholinopyridin-2(1H)-one], the IC50 is 100 to 500 nM.

With `Cc1cccc(C(CCO)Nc2ccc3c(c2)Sc2cccc(-c4cc(N5CCOCC5)cc(=O)[nH]4)c2S3)n1` (stereo not drawn) [Example 1-34-5, 6-(7-((3-Hydroxy-1-(6-methylpyridin-2-yl)propyl)amino)thianthren-1-yl)-4-morpholino pyridin-2(1H)-one], the IC50 lay within 100 to 500 nM.

Regarding `O=c1cc(N2CCOCC2)cc(-c2cccc3c2Sc2ccc(NCCN4CCOCC4)cc2C3)[nH]1` [Example 3-4-1, 4-Morpholino-6-(7-((2-morpholinoethyl)amino)-9H-thioxanthen-4-yl)pyridin-2(1H)-one], the IC50 fell in the range of 500 to 2000 nM.
